In patent publication US6548506B2, “Benzo[1,8]naphthyridine derivatives, their preparation and pharmaceutical compositions which comprise them” (Aventis Pharma S.A., priority 1998, dated 2003):

Experiments:
Assay type in all cases: in vivo
[1] = test system: Staphylococcus aureus ATCC 25923; assay: Model of infection of the guinea-pig with Staphylococcus aureus ATCC 25923; conditions: about 2% in a cetomacrogol and benzyl alcohol formulation; guinea-pig infected with S. aureus ATCC 25923
[2] = 2-week topical application to nasal mucous membrane of rabbit, toxicity; conditions: 2 weeks topical application b.i.d., composition at about 2%
[3] = test system: Staphylococcus aureus AS 5155; assay: Model of experimental infection of the guinea pig with Staphylococcus aureus AS 5155; conditions: about 2%; guinea pig infected with S. aureus AS 5155, resistant to meticillin, MLSB and quinolones
[4] = 2-week topical application toxicity in rat; conditions: 2 weeks topical application b.i.d., composition at about 2, about 5 and about 10%

For Cn1cc(C(=O)O)c(=O)c2cc3cc(F)c(N4CCN(c5ccc(F)cc5)CC4)cc3nc21 [Example 1, 7-Fluoro-8-[4-(4-fluorophenyl)piperazin-1-yl]-1-methyl-4-oxo-1,4-dihydrobenzo[b][1,8]-naphthyridine-3-carboxylic Acid], the in vivo activity [1] was “active”, the toxic effect [2] was “no toxic effect was observed” and the in vivo activity [3] was “active”. For the same compound, the toxic effect [4] was “no toxic effect was observed”.
